# Results: US9861094B2, “Composition and method for tissue preservation and embalming” (OGF, priority 2008, dated 2018)
# Columns and labels:
# [1] = tested on: bacteria in the body fluid; experiment: bacteriological analyses of body fluid after embalming
# Text: The results obtained according to the bronopol concentration were as follows:
# bodies of the deceased = experiment: embalming tests for presentation of the deceased (arterial and cavity injection); parameters: species or system human; details: 0.6% bronopol; bodies with no particular abnormality
# Protocol: For arterial injection, the following compositions were prepared and tested (these compositions are prepared for 1 liter of concentrated solution to which 5 liters of water are added):
# This operation uses the method generally used for embalming procedures, namely injection and drainage, said drainage being generally performed in the region of the right heart.
# Injection is carried out through the femoral, carotid or axillary arteries.
# The amount of fluid injected is approximately 6 liters, but this amount may vary depending on the state of the deceased and the diagnosis made by the embalmer, for example the need for more drainage.
# For cavity injection, the following compositions were prepared and tested (these compositions are prepared for 500 ml and used as they are):
# This operation uses the method widely practised in embalming procedures, that is, gas and fluid tapping in the region of the thoracic and abdominal cavities, and injection of the composition according to the invention into each of the cavities so that said composition is diffused optimally throughout the cavities concerned.
# Still using an identical base of glycerine, ethanol or methanol, tests were carried out using the compositions described in the examples above (compositions (1), (2), (3) and (3a) for arterial injection and compositions (4) and (5) for cavity injection).
# bodies for dissection = experiment: embalming of bodies for dissection (injection alone, no tapping); parameters: species or system human; details: bronopol 1% by weight, 4 liters injected; dissections 14 and 16 days after death
# Protocol: In this type of procedure, no liquid tapping or cavity injection is carried out.
# 1. Tests were also carried out within the faculty of medicine in the context of the preservation of bodies for dissection.
# The results observed are very interesting, knowing that these tests were carried out by injection alone with no tapping.
# To obtain optimum preservation of the body, a bronopol concentration of 1% by weight was used for a total injected quantity of 4 liters.
# For example, the above-mentioned composition (2) was used on a subject of average build (a person who had been dead for eight days).
# Before the test was performed, very marked lividities, large green abdominal marks and sunken eyes (the body had been frozen) were observed.
# The product was then injected through the carotid artery in one pass (one times 3.6 liters of water and 400 ml of the above-mentioned composition (2)), for better product dilution (injection total=4 liters) (bronopol concentration=1%).
# The subject was moved alternately between the cold storage room (7° C.) and the autopsy table (25° C.).
smiles,measurement,setting,value
"O=[N+]([O-])C(Br)(CO)CO [Bronopol, 2-bromo-2-nitropropane-1,3-diol]",Presence of bacteria in the body fluid,[1]; Bronopol concentration 0.90%,1 out of 2 cases with bacteria
same,Presence of bacteria in the body fluid,[1]; Bronopol concentration ≦0.80%,7 out of 8 cases with bacteria
same,Presence of bacteria in the body fluid,[1]; Bronopol concentration ≧1.2%,1 out of 3 cases with bacteria
same,overall result of embalming tests,bodies of the deceased,satisfactory results
same,odour,bodies for dissection,lack of odour
same,state of preservation of the body and tissue suppleness,bodies for dissection,very good results
